According to BindingDB's records for doi:10.7270/Q2H993J6 (Pcmd, 2008):

These compounds were tested against Coagulation factor XI (Homo sapiens, UniProt P03951) (assay: factor XIa inhibitor concentration-response – biochemical, hits from 1536-well screen, dose response (AID 846)). Conditions: pH 7.4; 23 °C.
Coagulation factor XI, sequence (P03951 19-387 limits assumed): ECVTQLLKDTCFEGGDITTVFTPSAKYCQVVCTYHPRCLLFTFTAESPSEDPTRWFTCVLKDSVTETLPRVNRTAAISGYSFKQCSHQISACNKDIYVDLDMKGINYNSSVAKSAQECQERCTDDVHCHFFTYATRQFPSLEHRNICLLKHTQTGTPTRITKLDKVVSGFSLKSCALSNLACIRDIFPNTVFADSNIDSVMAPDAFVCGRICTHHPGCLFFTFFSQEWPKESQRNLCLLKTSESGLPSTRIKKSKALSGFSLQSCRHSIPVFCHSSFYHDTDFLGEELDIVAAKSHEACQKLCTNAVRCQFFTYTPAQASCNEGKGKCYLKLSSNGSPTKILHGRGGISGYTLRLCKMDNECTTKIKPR
Coagulation factor XI, sequence (P03951 388-625 limits assumed): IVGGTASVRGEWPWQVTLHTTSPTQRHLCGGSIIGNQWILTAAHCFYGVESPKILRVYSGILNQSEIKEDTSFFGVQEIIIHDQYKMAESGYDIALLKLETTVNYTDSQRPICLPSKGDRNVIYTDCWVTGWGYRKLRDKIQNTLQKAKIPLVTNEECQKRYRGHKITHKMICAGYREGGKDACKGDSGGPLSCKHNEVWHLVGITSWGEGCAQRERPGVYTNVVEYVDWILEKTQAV

`CC1=CCC2C(=O)N(C(C)c3ccccc3)C(=O)C2C1` (centres undefined) [5-methyl-2-(1-phenylethyl)-3a,4,7,7a-tetrahydro-1H-isoindole-1,3(2H)-dione] and `Cc1ccccc1C(=O)NC1CCSC1=O` (centres undefined) [MLS000709097] cannot be ordered by IC50: > 50 µM for the first, > 50 µM for the second.

First: CSc1nc2cc3c(cc2n1C(=O)c1ccc(C)cc1)OCCO3 [MLS000544330]
Second: O=C(c1cccn2c(=O)c3cc(Br)ccc3nc12)N1CCC2(CC1)OCCO2 [2-bromanyl-6-(1,4-dioxa-8-azaspiro[4.5]decan-8-ylcarbonyl)pyrido[2,1-b]quinazolin-11-one]
The IC50 of the first is lower: 2.22 µM for the first, > 50 µM for the second.

`Cc1nn(CC(=O)c2ccc(Cl)s2)c(C)c1[N+](=O)[O-]` [MLS001006606] and `Cc1cc(C)cc(NC(=O)c2ccc([N+](=O)[O-])o2)c1` [MLS000710428] cannot be ordered by IC50: > 50 µM for the first, > 50 µM for the second.

`COc1cc(CN=Nc2cc(C)nc(NS(=O)(=O)c3ccccc3)n2)ccc1O` and `COc1cc(C2SCC(=O)N2c2c(C)n(C)n(-c3ccccc3)c2=O)ccc1O` (centres undefined) [SMR000414946] cannot be ordered by IC50: > 50 µM for the first, > 50 µM for the second.

`CCOc1cccc2c1OC1(C)CC2NC(=O)N1Cc1ccccc1` (centres undefined) [MLS000730538] and `S=C(NCCc1ccccc1)Nc1ccc(Br)cn1` [3-(5-bromopyridin-2-yl)-1-(2-phenylethyl)thiourea] cannot be ordered by IC50: > 50 µM for the first, > 50 µM for the second.

`CCC1CCC2(CC1)SCC(=O)N2c1ccccc1` (centres undefined) [SMR000425321] and `C=CCOC(=O)C1C(C)=Nc2[nH]c(=O)[nH]c(=O)c2C1c1ccccc1` (centres undefined) [7-methyl-2,4-dioxo-5-phenyl-5,8-dihydro-1H-pyrido[2,3-d]pyrimidine-6-carboxylic acid prop-2-enyl ester] cannot be ordered by IC50: > 50 µM for the first, > 50 µM for the second.

`Cc1cc(/C=C2\SC(=S)N(C)C2=O)c(C)n1-c1cccc(O)c1` [SMR000415846] and `CCOC(=O)c1sc2ncn(N=Cc3ccc(O)cc3)c(=O)c2c1C` [SMR000371630] cannot be ordered by IC50: > 50 µM for the first, > 50 µM for the second.

Going from `COc1cccc(NC(C)(C)c2nnnn2-c2c(C)cccc2C)c1` [N-[2-[1-(2,6-dimethylphenyl)tetrazol-5-yl]propan-2-yl]-3-methoxyaniline] to `COc1ccccc1/N=C/c1nc(-c2ccccc2)oc1OC(C)=O` [SMR000039734], the IC50 falls from > 50 µM to 7.75 µM. The second is the more potent here.

`CN1CCN(S(=O)(=O)Cc2ccc(Cl)cc2)CC1` [SMR000456888] and `Clc1ccc(-c2csc(N3CCOCC3)n2)cc1` [4-[4-(4-chlorophenyl)-2-thiazolyl]morpholine] cannot be ordered by IC50: > 50 µM for the first, > 50 µM for the second.

`COc1cc(C(=O)OCC(C)=O)ccc1OCc1c(C)noc1C` [SMR000377658] and `CCOCCCNS(=O)(=O)c1ccc(NC(=O)c2ccc(OC)c([N+](=O)[O-])c2)cc1` [N-[4-(3-ethoxypropylsulfamoyl)phenyl]-4-methoxy-3-nitrobenzamide] cannot be ordered by IC50: > 50 µM for the first, > 50 µM for the second.

`CN(Cc1ccon1)C(=O)CC1C(=O)NCCN1CC1CCCCC1` (centres undefined) [2-[1-(cyclohexylmethyl)-3-oxopiperazin-2-yl]-N-(isoxazol-3-ylmethyl)-N-methylacetamide] and `COc1ccc(OC)c(S(=O)(=O)N2CCCC(C)C2)c1` (centres undefined) [MLS000035543] cannot be ordered by IC50: > 50 µM for the first, > 50 µM for the second.

`CCc1ccc(NC(=O)CCn2cccc2)cc1` [SMR000130982] and `CCc1cccc(NC(=O)Cc2ccc([N+](=O)[O-])cc2)c1` cannot be ordered by IC50: > 50 µM for the first, > 50 µM for the second.

`O=[N+]([O-])c1ccc(OCCO)c(P(=O)(c2ccccc2)c2ccccc2)c1` [SMR000420001] and `O=C(Nc1ccc(Cl)cc1)Nc1ccccc1C(=O)NCc1ccco1` [2-[(4-chlorophenyl)carbamoylamino]-N-(furan-2-ylmethyl)benzamide] cannot be ordered by IC50: > 50 µM for the first, > 50 µM for the second.

`COc1ccc(CN(Cc2ccc(OC)cc2)C(=O)c2cccs2)cc1` [MLS000860276] and `Cn1nc(C(=O)Nc2nc(-c3ccc(F)cc3)cs2)ccc1=O` [N-[4-(4-fluorophenyl)-1,3-thiazol-2-yl]-1-methyl-6-oxopyridazine-3-carboxamide] cannot be ordered by IC50: > 50 µM for the first, > 50 µM for the second.

For `COc1cc2c(cc1/C=C/[N+](=O)[O-])OCO2` [MLS000706395], the IC50 was > 50 µM.
